Reference: PMC2151583 (The Journal of General Physiology, 2006)
Substitutions are numbered along the chain they refer to.

Tests used:
Assay in all cases: inside-out patch clamp, Xenopus oocytes
[1] = target: T1, HCN2 (Mus musculus, UniProt O88703); type: cell-based
T1 sequence (O88703 1-863): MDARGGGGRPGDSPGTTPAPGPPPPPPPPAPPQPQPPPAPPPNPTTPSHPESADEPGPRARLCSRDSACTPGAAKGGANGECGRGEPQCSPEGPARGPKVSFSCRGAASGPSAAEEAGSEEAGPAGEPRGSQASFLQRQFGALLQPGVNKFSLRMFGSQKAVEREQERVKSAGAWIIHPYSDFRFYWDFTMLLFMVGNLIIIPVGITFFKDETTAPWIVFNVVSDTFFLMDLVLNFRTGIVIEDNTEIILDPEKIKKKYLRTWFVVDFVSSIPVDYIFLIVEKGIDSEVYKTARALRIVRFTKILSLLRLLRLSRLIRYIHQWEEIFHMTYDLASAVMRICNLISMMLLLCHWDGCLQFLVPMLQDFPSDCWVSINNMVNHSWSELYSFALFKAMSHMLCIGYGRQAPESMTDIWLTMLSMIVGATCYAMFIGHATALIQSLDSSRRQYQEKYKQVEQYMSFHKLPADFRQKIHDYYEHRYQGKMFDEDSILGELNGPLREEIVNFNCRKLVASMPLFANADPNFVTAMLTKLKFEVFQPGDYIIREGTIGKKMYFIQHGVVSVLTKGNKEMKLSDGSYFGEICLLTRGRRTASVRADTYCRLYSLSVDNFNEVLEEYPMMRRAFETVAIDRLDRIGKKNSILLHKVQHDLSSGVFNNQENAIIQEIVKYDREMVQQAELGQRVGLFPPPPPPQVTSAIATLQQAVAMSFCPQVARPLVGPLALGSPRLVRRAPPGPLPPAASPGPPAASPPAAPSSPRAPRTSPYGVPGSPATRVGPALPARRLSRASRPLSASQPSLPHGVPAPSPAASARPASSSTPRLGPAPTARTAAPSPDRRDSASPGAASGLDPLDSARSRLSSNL

[2] = target: T1, HCN2; type: cell-based; remark: listed apart in the source
[3] = target: T2, HCN2/FPN (Mus musculus, UniProt O88703, Q450F/E451P/K452N); type: cell-based
T2 sequence (O88703 1-863 Q450F/E451P/K452N): T1 sequence (O88703 1-863) with Q450F, E451P, K452N

[4] = target: T1, HCN2; type: biochemical

Molecule | inside-out patch clamp, Xenopus oocytes; shift in V1/2 at 1 μM [1] | inside-out patch clamp, Xenopus oocytes; shift in V1/2 at 25 μM [2] [mV] | other results
CCCCCCCC(=O)OC[C@H](COP(=O)(O)O[C@H]1[C@H](O)[C@@H](O)[C@H](OP(=O)(O)O)[C@@H](OP(=O)(O)O)[C@H]1O)OC(=O)CCCCCCC [diC8 PI(3,4)P2, dioctanoyl phosphatidylinositol 3,4-bisphosphate] | – | 12.3 | –
CCCCCCCC(=O)OC[C@H](COP(=O)(O)O[C@H]1[C@H](O)[C@@H](OP(=O)(O)O)[C@H](OP(=O)(O)O)[C@@H](OP(=O)(O)O)[C@H]1O)OC(=O)CCCCCCC [diC8 PI(3,4,5)P3, dioctanoyl phosphatidylinositol 3,4,5-trisphosphate] | – | 9.3 | –
CCCCCCCC(=O)OC[C@H](COP(=O)(O)O[C@@H]1[C@H](O)[C@H](O)[C@@H](OP(=O)(O)O)[C@H](OP(=O)(O)O)[C@H]1O)OC(=O)CCCCCCC [diC8 PI(4,5)P2, dioctanoyl phosphatidylinositol 4,5-bisphosphate] | – | – | inside-out patch clamp, Xenopus oocytes; shift in V1/2 at 25 μM [3]: +13.9 mV; EC50 [4]: 10.9 µM
CCCCCCCC(=O)OC[C@H](COP(=O)(O)O[C@H]1[C@H](O)[C@@H](O)[C@H](OP(=O)(O)O)[C@@H](O)[C@H]1O)OC(=O)CCCCCCC [diC8 PI(4)P, dioctanoyl phosphatidylinositol 4-phosphate] | – | 7.5 | –

More lines, main results first:

inside-out patch clamp, Xenopus oocytes; shift in V1/2 at 1 μM [1] | inside-out patch clamp, Xenopus oocytes; shift in V1/2 at 25 μM [2] [mV] | Molecule | other results
+16.0 mV | – | CCCCCCCC/C=C\CCCCCCCC(=O)SCCNC(=O)CCNC(=O)[C@H](O)C(C)(C)COP(=O)(O)OP(=O)(O)OC[C@H]1O[C@@H](n2cnc3c(N)ncnc32)[C@H](O)[C@@H]1OP(=O)(O)O [oleoyl CoA, Oleoyl CoA] | –
+31.8 mV | – | phosphatidylinositol 4,5-bisphosphate [native PI(4,5)P2] | –
